# Test results reported in patent publication US8592621B2, “Precursor compounds of sweet taste receptor antagonists for the prevention or treatment of disease” (Symrise AG, priority 2009, dated 2013).
# Legend:
# [1] = test system: sweet taste impression of sweet tasting substances; assay: Influence on the sensorial quality of sweet substances (expert panel rating of sweet taste impression); type: in vivo; settings: for Sweet taste impression (1-10) Sample (B): scale 1 [not sweet] to 10 [extremely sweet]; for Change in sweet taste impression [%]: sample B vs sample A
# Source text: In order to quantify the influence of inventive compounds of formula (I) on the sensorial characteristics of various sweet tasting substances, in each case a sample (A) (sweet tasting substance) and a sample (B) (sweet tasting substance+compound of formula (I) or lactisole (as standard)) were sensorially assessed by a group of experts and rated according to their sweet taste impression on a scale of 1 [not sweet] to 10 [extremely sweet]. Then in each case from the average values of the assessments of samples (A) and (B) the change (in %) in the sweet taste impression was calculated.
# T1R2/T1R3 receptors [2] = biological target: T1, T1R2/T1R3 receptors (Homo sapiens, UniProt Q7RTX0+Q8TE23); assay: Calcium mobilization (FLIPR) in HEK293TREX cells expressing human TAS1R2/TAS1R3; type: cell-based; settings: in the presence of naringin dihydrochalcone; FIG. 3
# T1 construct: expressed in transfected cells; TAS1R2 from pCDNA5-FRT, TAS1R3 from pCDNA3-TO (tetracycline-induced), G15-Gi3 from pIRESpuro3
# T1 sequence (Q8TE23 20-839): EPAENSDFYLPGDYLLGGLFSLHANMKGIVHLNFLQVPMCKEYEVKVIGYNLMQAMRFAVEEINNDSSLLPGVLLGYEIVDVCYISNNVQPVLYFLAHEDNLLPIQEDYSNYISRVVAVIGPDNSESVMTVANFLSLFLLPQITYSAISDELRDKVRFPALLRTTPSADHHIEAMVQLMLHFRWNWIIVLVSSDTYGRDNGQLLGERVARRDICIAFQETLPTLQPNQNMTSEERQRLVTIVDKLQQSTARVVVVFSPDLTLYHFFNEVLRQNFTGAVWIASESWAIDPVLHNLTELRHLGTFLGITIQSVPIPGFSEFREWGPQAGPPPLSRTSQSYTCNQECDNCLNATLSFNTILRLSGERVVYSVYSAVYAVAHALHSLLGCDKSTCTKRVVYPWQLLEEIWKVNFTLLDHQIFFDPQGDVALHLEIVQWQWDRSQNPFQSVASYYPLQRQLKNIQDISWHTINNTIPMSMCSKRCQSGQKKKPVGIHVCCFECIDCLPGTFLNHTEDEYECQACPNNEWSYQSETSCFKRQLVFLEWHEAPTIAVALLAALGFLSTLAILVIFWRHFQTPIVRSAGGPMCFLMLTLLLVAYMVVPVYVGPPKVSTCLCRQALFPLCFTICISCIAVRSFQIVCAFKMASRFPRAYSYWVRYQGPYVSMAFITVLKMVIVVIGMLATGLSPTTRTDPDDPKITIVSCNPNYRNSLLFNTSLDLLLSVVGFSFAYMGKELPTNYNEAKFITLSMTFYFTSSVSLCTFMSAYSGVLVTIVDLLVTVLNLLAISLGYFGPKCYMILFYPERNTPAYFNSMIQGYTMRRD
# T1 sequence (Q7RTX0 21-852): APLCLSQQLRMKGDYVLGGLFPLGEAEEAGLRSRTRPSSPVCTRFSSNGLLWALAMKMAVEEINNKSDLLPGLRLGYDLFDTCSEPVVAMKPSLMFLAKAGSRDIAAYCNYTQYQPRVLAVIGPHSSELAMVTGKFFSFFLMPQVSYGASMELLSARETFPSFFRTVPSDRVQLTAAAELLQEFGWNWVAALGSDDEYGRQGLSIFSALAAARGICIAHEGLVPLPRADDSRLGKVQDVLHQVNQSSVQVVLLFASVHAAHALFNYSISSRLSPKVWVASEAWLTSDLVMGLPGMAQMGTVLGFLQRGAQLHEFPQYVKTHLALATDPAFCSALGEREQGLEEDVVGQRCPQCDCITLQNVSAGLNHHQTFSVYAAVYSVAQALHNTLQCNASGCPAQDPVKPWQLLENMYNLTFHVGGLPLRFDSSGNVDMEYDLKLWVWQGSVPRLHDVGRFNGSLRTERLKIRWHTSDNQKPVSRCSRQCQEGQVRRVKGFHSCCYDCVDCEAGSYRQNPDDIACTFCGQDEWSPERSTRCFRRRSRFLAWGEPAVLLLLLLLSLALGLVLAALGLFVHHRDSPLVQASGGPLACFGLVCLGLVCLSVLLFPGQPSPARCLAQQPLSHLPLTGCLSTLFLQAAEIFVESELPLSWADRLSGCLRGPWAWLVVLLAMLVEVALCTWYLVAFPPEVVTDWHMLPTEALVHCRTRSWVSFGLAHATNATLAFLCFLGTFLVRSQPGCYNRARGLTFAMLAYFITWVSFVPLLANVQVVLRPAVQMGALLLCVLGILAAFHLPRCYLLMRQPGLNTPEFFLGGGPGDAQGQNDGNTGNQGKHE
# T1R2/T1R3 receptors [3] = biological target: T1, T1R2/T1R3 receptors; assay: Activating or inhibiting effect on T1R2/T1R3 receptors according to concentration (same process as application example 3); type: cell-based; settings: FIG. 4
# Source text: A stable cell line (HEK293TREX) extracted from human embryonic renal cells was manufactured with the help of the plasmid pIRESpuro3, coding for the G protein chimeras G15-Gi3. A further plasmid (pCDNA5-FRT), coding for the human TAS1R2 sequence, was also used. In this way it was possible to integrate the gene in a defined chromosomal region. The human TAS1R3 subunit of the human sweet taste receptor was cloned in pCDNA3-TO. This allowed the induction of the target gene using tetracycline. The stable, transfixed cell line was cultivated in high glucose content DMEM without tetracycline. For the measurements the cells were sown and cultivated (37° C., 5% CO2) in polylysine-coated 96-well titrimetric places (black with transparent bases) until they achieved an 80% confluence. […] The calcium mobilization by receptor stimulation by the test substances was measured in an automated fluorometer (fluorometric imaging plate reader FLIPR, Molecular Devices, Sunnyvale, Calif.). The test substances were measured in a concentration of 1 mmol/l or 0.1 mmol/l in C1 solution. All data were determined in two independent experiments, which were each repeated three times. The calcium signals obtained were corrected for the proportion of the mock cells and (using the formula ΔF/F=(F−F0)/F0) normalized on the starting intensity of the fluorescence prior to addition of the test substances (F0).
# [4] = test system: sweet taste intensity (in the oral cavity); assay: Taste tests by a sensory panel (sweet taste intensity in the oral cavity); type: in vivo; settings: tasting by sensory panel
# Source text: From this it can be concluded that during the tasting of the compounds of formulas (1) to (4) in the oral cavity no lactisole was released.
# [5] = Sucrose 5% + test substance 10 mg/l
# [6] = Sucrose 5%, test substance 10 mg/l
structure (smiles),measurement,setting,value
"CCCCCCOC(=O)C(C)Oc1ccc(OC)cc1 (stereo not drawn) [Compound of formula (1), 2-(4-methoxyphenoxy)-propanoic acid hexyl ester]",Sweet taste impression (1-10) Sample (B),[1]; Sucrose 5% + test substance 14 mg/l,5.0 ± 1
same,Change in sweet taste impression [%],"[1]; Sucrose 5%, test substance 14 mg/l",−10%
same,Antagonistic effect (inhibition) on the sweet taste receptor,T1R2/T1R3 receptors [2],do not themselves demonstrate any antagonistic effect
"COc1ccc(OC(C)C(=O)OCC(COC(=O)C(C)Oc2ccc(OC)cc2)OC(=O)C(C)Oc2ccc(OC)cc2)cc1 (stereo not drawn) [Compound of formula (2), 2-(4-methoxyphenoxy)propanoic acid-2,3-bis-[2-(4-methoxyphenoxy)-propionyloxy]-propyl ester]",Sweet taste impression (1-10) Sample (B),[1]; Naringin dihydrochalcone 50 mg/l + test substance 10 mg/l,5.6 ± 2.1
same,Change in sweet taste impression [%],"[1]; Naringin dihydrochalcone 50 mg/l, test substance 10 mg/l",9%
same,Sweet taste impression (1-10) Sample (B),[1]; [5],5.6 ± 1.5
same,Change in sweet taste impression [%],[1]; [6],3%
same,Antagonistic effect on the sweet taste receptor,T1R2/T1R3 receptors [3]; in the presence of aspartame or sucrose,does not demonstrate any antagonistic effect
same,Dose-effect curve for aspartame or saccharose,T1R2/T1R3 receptors [3]; in the presence of the compound,not altered
same,Antagonistic effect (inhibition) on the sweet taste receptor,T1R2/T1R3 receptors [2],do not themselves demonstrate any antagonistic effect
"CCCCOC(=O)C(C)Oc1ccc(OC)cc1 (stereo not drawn) [Compound of formula (4), 2-(4-methoxyphenoxy)propanoic acid butyl ester]",Sweet taste impression (1-10) Sample (B),[1]; Sucrose 5% + test substance 16 mg/l,5.6 ± 1.5
same,Change in sweet taste impression [%],"[1]; Sucrose 5%, test substance 16 mg/l",−5%
"COc1ccc(OC(C)C(=O)O)cc1 (stereo not drawn) [Lactisole, 2-(4-methoxyphenoxy)propanoic acid, reference compound]",Sweet taste impression (1-10) Sample (B),[1]; [5],4.2 ± 1.4
same,Change in sweet taste impression [%],[1]; [6],−27%
same,Influence on the sweet taste intensity (in the oral cavity),[4],clear reduction in the sweet taste intensity
